Results published in patent US12187709B2 (Genentech, Inc., priority 2021, dated 2025).

Key:
Cbl-b = Cbl-b (Homo sapiens (Human), UniProt Q13191); assay: Cbl-b LCK Ub TR-FRET assay (Cbl-b Lck HTRF); type: biochemical; details: for IC50: Cbl-b LCK Ub TR-FRET; for fold-selectivity (Cbl-b over C-cbl) / (fold-selectivity) Cbl-b and C-Cbl Selectivity: ratio C-cbl Lck HTRF IC50 / Cbl-b Lck HTRF IC50
Procedure, shortened: (§1)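 Signal is read once the detection mix has stood 20 min at ambient temperature. Curves are anchored by DMSO as maximum and by omission of LCK as minimum.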

c-Cbl = c-Cbl (Homo sapiens (Human), UniProt P22681); assay: C-Cbl LCK Ub TR-FRET assay (C-cbl Lck HTRF); type: biochemical
Sequence of c-Cbl (P22681 47-435): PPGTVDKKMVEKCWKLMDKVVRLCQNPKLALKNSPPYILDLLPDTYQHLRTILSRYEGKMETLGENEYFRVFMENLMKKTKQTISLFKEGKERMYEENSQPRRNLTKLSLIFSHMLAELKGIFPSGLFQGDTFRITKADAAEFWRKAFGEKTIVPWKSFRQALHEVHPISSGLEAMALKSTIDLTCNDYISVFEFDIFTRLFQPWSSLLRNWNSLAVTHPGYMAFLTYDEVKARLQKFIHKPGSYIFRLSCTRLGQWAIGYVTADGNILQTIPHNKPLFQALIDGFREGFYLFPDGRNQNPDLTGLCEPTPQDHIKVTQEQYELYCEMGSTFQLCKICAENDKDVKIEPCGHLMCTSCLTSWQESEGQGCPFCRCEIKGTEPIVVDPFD
Procedure, shortened: as §1

[1] = target: Human Cbl-b (residues 40-426) (Homo sapiens (Human), UniProt Q13191); assay: Cbl-b SPR assay; type: binding; details: for Fold of selectivity: C-cbl SPR Kd vs Cbl-b SPR Kd; for Kd: SPR, 20° C.
Sequence of Human Cbl-b (residues 40-426) (Q13191 40-426): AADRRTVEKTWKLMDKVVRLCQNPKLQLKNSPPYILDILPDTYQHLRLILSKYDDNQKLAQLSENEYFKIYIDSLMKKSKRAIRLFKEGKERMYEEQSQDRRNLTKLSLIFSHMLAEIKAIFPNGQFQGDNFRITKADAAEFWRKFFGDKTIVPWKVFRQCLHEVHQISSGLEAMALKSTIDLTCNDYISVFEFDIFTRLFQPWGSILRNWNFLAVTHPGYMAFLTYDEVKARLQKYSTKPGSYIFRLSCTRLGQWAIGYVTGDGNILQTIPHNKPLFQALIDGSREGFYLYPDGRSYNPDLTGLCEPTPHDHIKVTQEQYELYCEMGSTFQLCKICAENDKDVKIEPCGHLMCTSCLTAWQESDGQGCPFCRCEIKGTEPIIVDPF
Procedure, shortened: (§2)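 Protein captured at 1300-1500 RU; compounds run as 6-point 2-fold series in multi-cycle kinetics (60 s contact, 40 μl/min, 120-1200 s dissociation), fitted 1:1. For slow binders, kd came from chaser-compound occupancy over time, fixed in a single-cycle fit (5 concentrations, top 500 nM).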

c-Cbl (residues 47-435) = c-Cbl (residues 47-435) (Homo sapiens (Human), UniProt P22681); assay: c-Cbl SPR assay; type: binding; details: 20° C.
Sequence of c-Cbl (residues 47-435) (P22681 47-435): as the sequence (P22681 47-435) above
Procedure, shortened: as §2

Sequence of Cbl-b (Q13191 40-426): as the sequence (Q13191 40-426) above

SMILES | IC50 (Cbl-b) | fold-selectivity (Cbl-b over C-cbl) (Cbl-b) | IC50 (c-Cbl) | Fold of selectivity [1] | Kd [1] | Kd (c-Cbl (residues 47-435)) | IC50 (Cbl-b; Example 121) | (fold-selectivity) Cbl-b and C-Cbl Selectivity (Cbl-b)
CO[C@H]1C[C@](c2cc(NC3CCC3)cc(N3Cc4c(cc(CNC5(C)CCC5)cc4C(F)(F)F)C3=O)c2)(c2nncn2C)C1 [Compound 211, 2-(3-(cyclobutylamino)-5-((1r,3r)-3-methoxy-1-(4-methyl-4H-1,2,4-triazol-3-yl)cyclobutyl)phenyl)-6-(((1-methylcyclobutyl)amino)methyl)-4-(trifluoromethyl)isoindolin-1-one] | 0.015 µM | 4.0x | 0.06 µM | 14× | 0.0035 µM | 0.049 µM |  | 
Cn1cnnc1[C@]1(c2cc(OC3CCCC3)cc(N3Cc4c(cc(CNC5(C)CCC5)cc4C(F)(F)F)C3=O)c2)C[C@H](C)C1 [Compound 186, 2-(3-(cyclopentyloxy)-5-((1s,3s)-3-methyl-1-(4-methyl-4H-1,2,4-triazol-3-yl)cyclobutyl)phenyl)-6-(((1-methylcyclobutyl)amino)methyl)-4-(trifluoromethyl)isoindolin-1-one] | 0.035 µM | 2.9x | 0.1 µM | 5.2× | 0.013 µM | 0.072 µM |  | 
Cn1cnnc1[C@@H](c1cccc(N2Cc3c(cc(CNC4(C)CCC4)cc3C(F)(F)F)C2=O)c1)[C@H]1C[C@H](C)C1 (single isomer, unassigned) [Compound 378] | 0.0094 µM | 6.0x | 0.056 µM | 14× | 0.0069 µM | 0.096 µM |  | 
Cn1cnnc1C1(c2cccc(N3Cc4c(cc(C(N)=O)cc4C(F)(F)F)C3=O)c2)CCC1 [Compound 327, 2-(3-(1-(4-methyl-4H-1,2,4-triazol-3-yl)cyclobutyl)phenyl)-3-oxo-7-(trifluoromethyl)isoindoline-5-carboxamide] | 0.19 µM | 2.9x | 0.55 µM | 4.7× | 0.21 µM | 0.98 µM |  | 
CC[C@](F)(c1cccc(N2Cc3c(cc(CNC4(C)CCC4)cc3C(F)(F)F)C2=O)c1)c1nncn1C (single isomer, unassigned) [Compound 393] | 0.19 µM | 2.4x | 0.46 µM | 3.5× | 0.15 µM | 0.54 µM |  | 
Cn1cnnc1C1(c2cccc(N3Cc4c(cc(CNC5(C)CCC5)cc4C(F)(F)F)C3=O)c2)CCCCC1 [Compound 298, 2-(3-(1-(4-methyl-4H-1,2,4-triazol-3-yl)cyclohexyl)phenyl)-6-(((1-methylcyclobutyl)amino)methyl)-4-(trifluoromethyl)isoindolin-1-one] | 0.66 µM | 2.3x | 1.5 µM | 5.9× | 0.48 µM | 2.6 µM |  | 
Cn1cnnc1[C@@H](c1cccc(N2Cc3c(cc(CNC4(C)CCC4)cc3C(F)(F)F)C2=O)c1)C1CC(OC(F)F)C1 (single isomer, unassigned) [Compound 388] | 0.12 µM | 7.6x | 0.87 µM | 9.7× | 0.1 µM | 0.97 µM |  | 
Cn1cnnc1[C@H](C[C@H]1CCOC1)c1cccc(N2Cc3c(cc(CNC4(C)CCC4)cc3C(F)(F)F)C2=O)c1 [Compound 278, 2-(3-((R)-1-(4-methyl-4H-1,2,4-triazol-3-yl)-2-((S)-tetrahydrofuran-3-yl)ethyl)phenyl)-6-(((1-methylcyclobutyl)amino)methyl)-4-(trifluoromethyl)isoindolin-1-one] | 5 µM | 1.8x | 8.9 µM | 4.8× | 1.8 µM | 8.6 µM |  | 
Cn1cnnc1C1(c2cccc(N3Cc4c(cc(CNC5(C)CCC5)cc4C(F)(F)F)C3=O)c2)CN(S(C)(=O)=O)C1 [Compound 113, 2-(3-(3-(4-methyl-4H-1,2,4-triazol-3-yl)-1-(methylsulfonyl)azetidin-3-yl)phenyl)-6-(((1-methylcyclobutyl)amino)methyl)-4-(trifluoromethyl)isoindolin-1-one] | 3.5 µM | 5.3x | 18 µM | 13× | 2.7 µM | 34 µM |  | 

These reach a lower IC50 (c-Cbl). Values come first.

IC50 (Cbl-b) | fold-selectivity (Cbl-b over C-cbl) (Cbl-b) | IC50 (c-Cbl) | Fold of selectivity [1] | Kd [1] | Kd (c-Cbl (residues 47-435)) | IC50 (Cbl-b; Example 121) | (fold-selectivity) Cbl-b and C-Cbl Selectivity (Cbl-b) | SMILES
0.01 µM | 3x | 0.03 µM | 11× | 0.003 µM | 0.033 µM |  |  | CC(=O)[C@H]1C[C@](c2cccc(N3Cc4c(cc(CNC5(C)CCC5)cc4C(F)(F)F)C3=O)c2)(c2nncn2C)C1 [Compound 347, 2-(3-((1r,3r)-3-acetyl-1-(4-methyl-4H-1,2,4-triazol-3-yl)cyclobutyl)phenyl)-6-(((1-methylcyclobutyl)amino)methyl)-4-(trifluoromethyl)isoindolin-1-one]
0.0058 µM | 1.1x | 0.0065 µM | 4.5× | 0.002 µM | 0.009 µM |  |  | Cn1cnnc1[C@@H](c1cccc(N2Cc3c(cc(CNC4(C)CCC4)cc3C(F)(F)F)C2=O)c1)C1CC(OC(F)(F)F)C1 (single isomer, unassigned) [Compound 398]
0.0099 µM | 4.4x | 0.044 µM | 6.7× | 0.0093 µM | 0.063 µM |  |  | Cn1cnnc1C1(c2cccc(N3Cc4c(cc([C@H](CO)NC5(C)CCC5)cc4C(F)(F)F)C3=O)c2)CCC1 (single isomer, unassigned) [Compound 148]
0.01 µM | 2.3x | 0.023 µM | 5.2× | 0.0018 µM | 0.0089 µM |  |  | Cn1cnnc1[C@H](c1cccc(N2Cc3c(cc(CNC4(C)CCC4)cc3C(F)(F)F)C2=O)c1)C1CC(=O)C1 (single isomer, unassigned) [Compound 115]
0.0055 µM | 1.0x | 0.0055 µM | 3.0× | 0.0006 µM | 0.0017 µM |  |  | Cn1cnnc1[C@H](c1cccc(N2Cc3c(cc(CNC4(C)CCC4)cc3C(F)(F)F)C2=O)c1)C1CC(OC(F)F)C1 (single isomer, unassigned) [Compound 390]
 |  | 0.0071 µM | 5.3× | 0.0003 µM | 0.0016 µM | 0.0045 µM | 1.6x | C[C@H](NC1(C)CCC1)c1cc2c(c(C(F)F)c1)CN(c1cccc([C@H](c3nncn3C)C3COC3)c1)C2=O (single isomer, unassigned) [Compound 413]
 |  | 0.036 µM | 11× | 0.0083 µM | 0.091 µM | 0.0083 µM | 4.3x | CO[C@H]1C[C@](c2cccc(N3Cc4c(cc(CNC5(C)CC(F)(F)C5)cc4C(F)(F)F)C3=O)c2)(c2nncn2C)C1 [Compound 471, 6-(((3,3-difluoro-1-methylcyclobutyl)amino)methyl)-2-(3-((1r,3r)-3-methoxy-1-(4-methyl-4H-1,2,4-triazol-3-yl)cyclobutyl)phenyl)-4-(trifluoromethyl)isoindolin-1-one]
 |  | 0.0049 µM | 2.6× | 0.00085 µM | 0.0022 µM | 0.0048 µM | 1.0x | Cn1cnnc1C(F)(c1cccc(N2Cc3c(cc(CNC4(C)CCC4)cc3C(F)(F)F)C2=O)c1)C1(F)COC1 (stereo in doubt) [Compound 404, (R)-2-(3-(fluoro(3-fluorooxetan-3-yl)(4-methyl-4H-1,2,4-triazol-3-yl)methyl)phenyl)-6-(((1-methylcyclobutyl)amino)methyl)-4-(trifluoromethyl)isoindolin-1-one]
0.006 µM | 1.1x | 0.0065 µM | 1.1× | 0.0007 µM | 0.0008 µM |  |  | C[C@H](NC1(C)CCC1)c1cc2c(c(C(F)(F)F)c1)CN(c1cccc(C(c3nncn3C)C3COC3)c1)C2=O (stereo partly drawn) [Compound 285]
0.0081 µM | 4.4x | 0.036 µM | 21× | 0.004 µM | 0.084 µM |  |  | CO[C@H]1C[C@](c2cccc(N3Cc4c(cc([C@@H](N)C(C)(C)C)cc4C(F)(F)F)C3=O)c2)(c2nncn2C)C1 (single isomer, unassigned) [Compound 361]
 |  | 0.012 µM | 5.2× | 0.0032 µM | 0.017 µM | 0.0065 µM | 1.9x | Cn1cnnc1[C@@H](c1cccc(N2Cc3c(cc(CNCC(C)(C)F)cc3C(F)(F)F)C2=O)c1)C1COC1 [Compound 463, (R)-6-(((2-fluoro-2-methylpropyl)amino)methyl)-2-(3-((4-methyl-4H-1,2,4-triazol-3-yl)(oxetan-3-yl)methyl)phenyl)-4-(trifluoromethyl)isoindolin-1-one]
0.011 µM | 2.3x | 0.026 µM | 8.2× | 0.0033 µM | 0.028 µM |  |  | Cn1cnnc1[C@@H](c1cccc(N2Cc3c(cc(CNC4(C)CCC4)cc3C(F)F)C2=O)c1)C1COC1 (single isomer, unassigned) [Compound 303]
